# Data published in patent US20230233580A1, “USE OF OXYGENATED CHOLESTEROL SULFATES FOR CANCERS AND NON-CANCEROUS TRANSFORMATIONS RELATED TO EPSTEIN-BARR VIRUS” (priority 2020, published 2023).
# Values joined by “and” are separate entries in the source; they are usually repeats but may differ in a detail not shown here. Identical values can stand only once.
# Experiments:
# Huh-7 cells = experiment: Whole genome bisulfite sequencing (WGBS), promoter 5mCpG demethylation; assay type: cell-based, human; details: Huh-7, HG 72 h, 25 μM 4 h
# Protocol: Each sample, 2 μg, was sent to EpigenDx, Inc. (Hopkinton, Mass.) for analysis of global methylation bisulfite sequencing. The same samples, 6 μg, were sent to Novogene Co., Ltd (Tianjin, China) for analysis of whole genome bisulfite sequencing (WGBS). Total RNA was isolated using the Promega SV total RNA isolation system (Madison, Wis.) with DNase treatment. Each sample, 2 μg, was used for the first-strand cDNA synthesis as recommended by the manufacturer (Invitrogen, Carlsbad, Calif.). Real-time RT-PCR was performed using SYBR Green as the indicator on ABI 7500 Fast Real-Time PCR System (Applied Biosystems, Foster City, Calif.). Amplifications of j-actin or GAPDH were used as internal controls. Relative messenger RNA (mRNA) expression was quantified with the comparative cycle threshold (Ct) method using the primer set shown in Table 1.1 and was expressed as 2^−ΔΔct.
# Each sample, 5.2 μg of genomic DNA spiked with 26 ng lambda DNA, was fragmented by sonication to 200-300 bp with Covaris S220, followed by end repair and adenylation. Cytosine-methylated barcodes were ligated to sonicated DNA per the manufacturer's instructions. These DNA fragments were treated twice with bisulfite using EZ DNA Methylation-Gold™ Kit™ (Zymo Research) before the resulting single-strand DNA fragments were PCR amplified using KAPA HiFi Hot Start Uracil and Ready Mix (2×). Library concentration was quantified by Qubit® 2.0 Flurometer (Life Technologies, CA, USA) and quantitative PCR, and the insert size was assayed on an Agilent Bioanalyzer 2100 system.
# The library preparations were sequenced on an Illumina Hiseq 2500/4000 or Novaseq™ platform and 125 bp/150 bp paired-end reads were generated. Image analysis and base calling were performed with Illumina CASAVA pipeline. Trimmomatic (Trimmomatic-0.36) software was used for quality control. Bismark software (version 0.16.3; Krueger F, 2011) was used to perform alignments of bisulfite-treated reads to a reference genome (−X 700-dovetail). DSS software (23) was used to identify differentially methylated regions (DMRs). KOBAS software was used to test the statistical enrichment of DMR related genes in the Kyoto Encyclopedia of Genes and Genomes (KEGG) pathways.
# Each sample (6 μg) was used for analysis of the whole genome bisulfite sequencing (WGBS).
# [1] = Metabolite profiling of plasma, urine, feces, intravenous dose; assay type: in vivo, rats; details: intravenous 10 mg/kg
# Protocol: Plasma pools were made from Group 1 rats at the 0.083, 0.25, 0.5, and 1-hour collection time points.
# Urine pools were prepared for Group 2 at 0 to 6 and 6 to 12 hours post-dose.
# Feces pools were prepared for Group 2 at 0 to 12, 12 to 24, and 24 to 48 hours post-dose.
smiles,measurement,setting,value
"C[C@H](CCCC(C)(C)O)[C@H]1CC[C@H]2[C@@H]3CC=C4C[C@@H](OS(=O)(=O)O)CC[C@]4(C)[C@H]3CC[C@]12C [25HC3S, 5-Cholesten-3β, 25-diol 3-sulfate]","DMR (Methylation %) 25HC3S-Vehicle, DRD5P2 promoter",Huh-7 cells; Chr1 1.43E+08,−34.73%
same,"DMR (Methylation %) 25HC3S-Vehicle, ITPKB promoter",Huh-7 cells; Chr1 2.27E+08,−25.12%
same,"DMR (Methylation %) 25HC3S-Vehicle, MAP4K4 promoter",Huh-7 cells; Chr2 1.02E+08,−13.63%
same,"DMR (Methylation %) 25HC3S-Vehicle, ROCK2 promoter",Huh-7 cells; Chr2 11344628-11344733,−23.14%
same,"DMR (Methylation %) 25HC3S-Vehicle, PPP1CB promoter",Huh-7 cells; Chr2 28751716-28751798,−10.93%
same,"DMR (Methylation %) 25HC3S-Vehicle, ADCY5 promoter",Huh-7 cells; Chr3 1.23E+08,−30.44%
same,"DMR (Methylation %) 25HC3S-Vehicle, HRH1 promoter",Huh-7 cells; Chr3 11154292-11154354,−25.48%
same,"DMR (Methylation %) 25HC3S-Vehicle, PLCD1 promoter",Huh-7 cells; Chr3 38029863-38030016,−24.31%
same,"DMR (Methylation %) 25HC3S-Vehicle, DUSP7 promoter",Huh-7 cells; Chr3 52056416-52056485,−40.47%
same,"DMR (Methylation %) 25HC3S-Vehicle, CACNA1D promoter",Huh-7 cells; Chr3 53494583-53494705,−20.46%
same,"DMR (Methylation %) 25HC3S-Vehicle, RAPGEF2 promoter",Huh-7 cells; Chr4 1.59E+08,−36.05%
same,"DMR (Methylation %) 25HC3S-Vehicle, PDE4D promoter",Huh-7 cells; Chr5 59893498-59893718,−27.84%
same,"DMR (Methylation %) 25HC3S-Vehicle, AFDN promoter",Huh-7 cells; Chr6 1.68E+08,−30.68%
same,"DMR (Methylation %) 25HC3S-Vehicle, AL671762.1 promoter",Huh-7 cells; Chr6 31828019-31828149,−27.17%
same,"DMR (Methylation %) 25HC3S-Vehicle, CREB5 promoter",Huh-7 cells; Chr7 28489448-28489601,−29.31%
same,"DMR (Methylation %) 25HC3S-Vehicle, GLI3 promoter",Huh-7 cells; Chr7 42228171-42228223,−19.62%
same,"DMR (Methylation %) 25HC3S-Vehicle, ADCY1 promoter",Huh-7 cells; Chr7 45574500-45574591,−14.76%
same,"DMR (Methylation %) 25HC3S-Vehicle, VAV2 promoter",Huh-7 cells; Chr9 1.34E+08,−33.11%
same,"DMR (Methylation %) 25HC3S-Vehicle, GNAQ promoter",Huh-7 cells; Chr9 78032198-78032440,−11.92%
same,"DMR (Methylation %) 25HC3S-Vehicle, PTCH1 promoter",Huh-7 cells; Chr9 95508446-95508561,−12.09%
same,"DMR (Methylation %) 25HC3S-Vehicle, GABBR2 promoter",Huh-7 cells; Chr9 98708549-98708610,−21.84%
same,"DMR (Methylation %) 25HC3S-Vehicle, ADRB1 promoter",Huh-7 cells; Chr10 1.14E+08,−33.1%
same,"DMR (Methylation %) 25HC3S-Vehicle, CACNB2 promoter",Huh-7 cells; Chr10 18140401-18140547,−21.91%
same,"DMR (Methylation %) 25HC3S-Vehicle, MAPK8 promoter",Huh-7 cells; Chr10 48306510-48306561,−29.24%
same,"DMR (Methylation %) 25HC3S-Vehicle, HRAS promoter",Huh-7 cells; Chr11 535071-535127,−18.85%
same,"DMR (Methylation %) 25HC3S-Vehicle, DUSP8 promoter",Huh-7 cells; Chr11 1572973-1573032,−30.51%
same,"DMR (Methylation %) 25HC3S-Vehicle, BAD promoter",Huh-7 cells; Chr11 64286088-64286179,−42.33%
same,"DMR (Methylation %) 25HC3S-Vehicle, RELA promoter",Huh-7 cells; Chr11 65661914-65662035,−35.1%
same,"DMR (Methylation %) 25HC3S-Vehicle, CACNA1C-AS1 promoter",Huh-7 cells; Chr12 2691335-2691438,−20.97%
same,"DMR (Methylation %) 25HC3S-Vehicle, NTF3 promoter",Huh-7 cells; Chr12 5432796-5432882,−33.48%
same,"DMR (Methylation %) 25HC3S-Vehicle, EDNRB promoter",Huh-7 cells; Chr13 77919496-77919743,−34.09%
same,"DMR (Methylation %) 25HC3S-Vehicle, ABCC4 promoter",Huh-7 cells; Chr13 95301634-95301736,−33.06%
same,"DMR (Methylation %) 25HC3S-Vehicle, ADCY4 promoter",Huh-7 cells; Chr14 24334570-24334719,−18.63%
same,"DMR (Methylation %) 25HC3S-Vehicle, MAX promoter",Huh-7 cells; Chr14 65102273-65102358,−31.75%
same,"DMR (Methylation %) 25HC3S-Vehicle, SLC8A3 promoter",Huh-7 cells; Chr14 70188747-70189089,−28.51%
same,"DMR (Methylation %) 25HC3S-Vehicle, TGFB3 promoter",Huh-7 cells; Chr14 75982395-75982557,−23.74%
same,"DMR (Methylation %) 25HC3S-Vehicle, CACNA1H promoter",Huh-7 cells; Chr16 1194928-1195015,−26.48%
same,"DMR (Methylation %) 25HC3S-Vehicle, GRIN2A promoter",Huh-7 cells; Chr16 10183302-10183414,−19.63%
same,"DMR (Methylation %) 25HC3S-Vehicle, GRIN2C promoter",Huh-7 cells; Chr17 74861739-74861853,−37.6% and −37.64%
same,"DMR (Methylation %) 25HC3S-Vehicle, SPHK1 promoter",Huh-7 cells; Chr17 76383180-76383291,−24.74%
same,"DMR (Methylation %) 25HC3S-Vehicle, GRIN3B promoter",Huh-7 cells; Chr19 1000331-1000405,−34.67%
same,"DMR (Methylation %) 25HC3S-Vehicle, GADD45B promoter",Huh-7 cells; Chr19 2474806-2474873,−28.6%
same,"DMR (Methylation %) 25HC3S-Vehicle, GNA11 promoter",Huh-7 cells; Chr19 3094383-3094442,−32.66%
same,"DMR (Methylation %) 25HC3S-Vehicle, AC005264.2 promoter",Huh-7 cells; Chr19 3156392-3156457,−15.76%
same,"DMR (Methylation %) 25HC3S-Vehicle, CACNA1A promoter",Huh-7 cells; Chr19 13226635-13226711,−39.91%
same,"DMR (Methylation %) 25HC3S-Vehicle, CTB-186G2.1 promoter",Huh-7 cells; Chr19 38596260-38596495,−34.3%
same,"DMR (Methylation %) 25HC3S-Vehicle, MAP4K1 promoter",Huh-7 cells; Chr19 38596260-38596495,−34.3%
same,"DMR (Methylation %) 25HC3S-Vehicle, ATP1A3 promoter",Huh-7 cells; Chr19 41999134-41999316,−15.75%
same,"DMR (Methylation %) 25HC3S-Vehicle, GIPR promoter",Huh-7 cells; Chr19 45668710-45668767,−10.04%
same,"DMR (Methylation %) 25HC3S-Vehicle, CACNG8 promoter",Huh-7 cells; Chr19 53961377-53961479,−31.18%
same,"DMR (Methylation %) 25HC3S-Vehicle, GNAS promoter",Huh-7 cells; Chr20 58888598-58888893,−25.68%
same,"DMR (Methylation %) 25HC3S-Vehicle, MAPK1 promoter",Huh-7 cells; Chr22 21867450-21867512,−7.66%
same,"DMR (Methylation %) 25HC3S-Vehicle, PDGFB promoter",Huh-7 cells; Chr22 39243967-39244084,−30.51%
same,"amount in feces, % of dose",[1]; 0 to 48 hours post-dose pools,2 % of dose
same,"share of the exposure (AUC) to 25HC3S related radioactivity, plasma",[1]; up to 1 hour post-dose,approximately 54%
